Test results reported in ChEMBL document CHEMBL3044986, “Synthesis of 1-(4-aminosulfonylphenyl)-3,5-diarylpyrazoline derivatives as potent antiinflammatory and antimicrobial agents” (2012).
Converted amounts (≈) assume the structure as drawn. The source made the active and inactive calls. No cut-off for these calls is given here.

Legend:
Rattus norvegicus [1] = experiment: Anti-inflammatory activity in Rattus norvegicus Wistar albino (rat) assessed as inhibition of carrageenan-induced paw edema at 50 mg/kg, po administered 30 min prior to carrageenan-challenge measured at 3 hr by plethysmometric analysis relative to control; assay type: functional
Bacillus subtilis [2] = experiment: Antibacterial activity against Bacillus subtilis MTCC 121 at 4 mg/ml after 24 hr by agar well diffusion assay; assay type: functional; settings: MTCC 121, 24 h, read-out: DIZ
Rattus norvegicus [3] = experiment: Anti-inflammatory activity in Rattus norvegicus Wistar albino (rat) assessed as inhibition of carrageenan-induced paw edema at 50 mg/kg, po administered 30 min prior to carrageenan-challenge measured at 4 hr by plethysmometric analysis relative to control; assay type: functional
Bacillus subtilis [4] = experiment: Antibacterial activity against Bacillus subtilis MTCC 121 after 24 hr by modified agar well diffusion assay; assay type: functional; settings: MTCC 121, 24 h
Candida albicans [5] = experiment: Antifungal activity against Candida albicans MTCC 227 after 24 hr by modified agar well diffusion assay; assay type: functional
Candida albicans [6] = experiment: Antifungal activity against Candida albicans MTCC 227 at 4 mg/ml after 24 hr by agar well diffusion assay; assay type: functional; settings: for zone of inhibition at 4000 µg/mL: MTCC 227, 24 h, read-out: DIZ
Rattus norvegicus [7] = experiment: Anti-inflammatory activity in Rattus norvegicus Wistar albino (rat) assessed as inhibition of carrageenan-induced paw edema at 50 mg/kg, po administered 30 min prior to carrageenan-challenge measured at 1 hr by plethysmometric analysis relative to control; assay type: functional
Saccharomyces cerevisiae [8] = experiment: Antifungal activity against Saccharomyces cerevisiae MTCC 170 after 24 hr by modified agar well diffusion assay; assay type: functional
Pseudomonas aeruginosa = experiment: Antibacterial activity against Pseudomonas aeruginosa MTCC 741 at 4 mg/ml after 24 hr by agar well diffusion assay; assay type: functional, organism-based
Rattus norvegicus [9] = experiment: Anti-inflammatory activity in Rattus norvegicus Wistar albino (rat) assessed as inhibition of carrageenan-induced paw edema at 50 mg/kg, po administered 30 min prior to carrageenan-challenge measured at 2 hr by plethysmometric analysis relative to control; assay type: functional
Staphylococcus aureus [10] = experiment: Antibacterial activity against Staphylococcus aureus MTCC 96 at 4 mg/ml after 24 hr by agar well diffusion assay; assay type: functional; settings: MTCC 96, 24 h, read-out: DIZ
Saccharomyces cerevisiae [11] = experiment: Antifungal activity against Saccharomyces cerevisiae MTCC 170 at 4 mg/ml after 24 hr by agar well diffusion assay; assay type: functional; settings: for zone of inhibition at 4000 µg/mL: MTCC 170, 24 h, read-out: DIZ
Escherichia coli = experiment: Antibacterial activity against Escherichia coli MTCC 1652 at 4 mg/ml after 24 hr by agar well diffusion assay; assay type: functional, organism-based
Staphylococcus aureus [12] = experiment: Antibacterial activity against Staphylococcus aureus MTCC 96 after 24 hr by modified agar well diffusion assay; assay type: functional; settings: MTCC 96, 24 h

| Compound | MIC (Bacillus subtilis [4]) | MIC (Candida albicans [5]) | MIC (Saccharomyces cerevisiae [8]) | MIC (Staphylococcus aureus [12]) | MIC (Candida albicans [5]; MTCC 227, 24 h) | MIC (Saccharomyces cerevisiae [8]; MTCC 170, 24 h) | inhibition in vivo at 50 mg/kg (Rattus norvegicus [1]) | zone of inhibition at 4000 µg/mL (Bacillus subtilis [2]) | inhibition in vivo at 50 mg/kg (Rattus norvegicus [3]) | diameter of the inhibition zone (DIZ) (Candida albicans [6]) | inhibition in vivo at 50 mg/kg (Rattus norvegicus [7]) | Activity (Pseudomonas aeruginosa) | inhibition in vivo at 50 mg/kg (Rattus norvegicus [9]) | zone of inhibition at 4000 µg/mL (Staphylococcus aureus [10]) | diameter of the inhibition zone (DIZ) (Saccharomyces cerevisiae [11]) | Activity (Escherichia coli) | zone of inhibition at 4000 µg/mL (Candida albicans [6]) | zone of inhibition at 4000 µg/mL (Saccharomyces cerevisiae [11]) |
| --- | --- | --- | --- | --- | --- | --- | --- | --- | --- | --- | --- | --- | --- | --- | --- | --- | --- | --- |
| COc1cc(OC)cc(C2CC(c3ccc(OC)cc3O)=NN2c2ccc(S(N)(=O)=O)cc2)c1 (configuration not stated) | 256 µg/mL (≈ 529 µM) | inactive | inactive | 256 µg/mL (≈ 529 µM) | – | – | 62.8% | 14.3 mm | 50% | inactive | 31.9% | inactive | 57.5% | 13.3 mm | inactive | inactive | – | – |
| COc1ccc(C2=NN(c3ccc(S(N)(=O)=O)cc3)C(c3cccc(OC)c3OC)C2)c(O)c1 (configuration not stated) | 32 µg/mL (≈ 66.2 µM) | – | – | 64 µg/mL (≈ 132 µM) | 128 µg/mL (≈ 265 µM) | 64 µg/mL (≈ 132 µM) | 45% | 20.6 mm | 43.8% | – | 47.8% | inactive | 25.2% | 18.6 mm | – | inactive | 14.3 mm | 15.6 mm |
| COc1ccc(OC)c(C2CC(c3ccc(Cl)cc3)=NN2c2ccc(S(N)(=O)=O)cc2)c1 (configuration not stated) | 64 µg/mL (≈ 136 µM) | – | – | 128 µg/mL (≈ 271 µM) | 128 µg/mL (≈ 271 µM) | 32 µg/mL (≈ 67.8 µM) | 58.9% | 18.6 mm | 45.4% | – | 14.5% | inactive | 48.8% | 15.3 mm | – | inactive | 14.3 mm | 17.6 mm |

Further lines, with some results ahead:

| MIC (Bacillus subtilis [4]) | MIC (Candida albicans [5]) | MIC (Saccharomyces cerevisiae [8]) | MIC (Staphylococcus aureus [12]) | MIC (Candida albicans [5]; MTCC 227, 24 h) | MIC (Saccharomyces cerevisiae [8]; MTCC 170, 24 h) | Compound | inhibition in vivo at 50 mg/kg (Rattus norvegicus [1]) | zone of inhibition at 4000 µg/mL (Bacillus subtilis [2]) | inhibition in vivo at 50 mg/kg (Rattus norvegicus [3]) | diameter of the inhibition zone (DIZ) (Candida albicans [6]) | inhibition in vivo at 50 mg/kg (Rattus norvegicus [7]) | Activity (Pseudomonas aeruginosa) | inhibition in vivo at 50 mg/kg (Rattus norvegicus [9]) | zone of inhibition at 4000 µg/mL (Staphylococcus aureus [10]) | diameter of the inhibition zone (DIZ) (Saccharomyces cerevisiae [11]) | Activity (Escherichia coli) | zone of inhibition at 4000 µg/mL (Candida albicans [6]) | zone of inhibition at 4000 µg/mL (Saccharomyces cerevisiae [11]) |
| --- | --- | --- | --- | --- | --- | --- | --- | --- | --- | --- | --- | --- | --- | --- | --- | --- | --- | --- |
| 128 µg/mL (≈ 281 µM) | inactive | inactive | 256 µg/mL (≈ 562 µM) | – | – | COc1ccc(OC)c(C2CC(c3ccc(F)cc3)=NN2c2ccc(S(N)(=O)=O)cc2)c1 (configuration not stated) | 48.3% | 15 mm | 41.7% | inactive | 50.7% | inactive | 30.7% | 13.6 mm | inactive | inactive | – | – |
| 128 µg/mL (≈ 271 µM) | – | – | 256 µg/mL (≈ 542 µM) | 64 µg/mL (≈ 136 µM) | 32 µg/mL (≈ 67.8 µM) | COc1cccc(C2CC(c3ccc(Cl)cc3)=NN2c2ccc(S(N)(=O)=O)cc2)c1OC (configuration not stated) | 46.1% | 15 mm | 27.8% | – | 18.8% | inactive | 35.4% | 13.6 mm | – | inactive | 15.3 mm | 17.3 mm |
| > 256 µg/mL | – | – | > 256 µg/mL | > 256 µg/mL | 64 µg/mL (≈ 136 µM) | COc1cc(OC)cc(C2CC(c3ccc(Cl)cc3)=NN2c2ccc(S(N)(=O)=O)cc2)c1 (configuration not stated) | 46.1% | 13.6 mm | 46.4% | – | 11.6% | inactive | 26.8% | 12 mm | – | inactive | 12.6 mm | 16.3 mm |
| 64 µg/mL (≈ 132 µM) | inactive | inactive | 128 µg/mL (≈ 265 µM) | – | – | COc1ccc(C2=NN(c3ccc(S(N)(=O)=O)cc3)C(c3ccc(OC)cc3OC)C2)c(O)c1 (configuration not stated) | 40.6% | 18.6 mm | 37.1% | inactive | 33.3% | inactive | 16.5% | 15.6 mm | inactive | inactive | – | – |
| 64 µg/mL (≈ 141 µM) | – | – | 128 µg/mL (≈ 281 µM) | 128 µg/mL (≈ 281 µM) | 64 µg/mL (≈ 141 µM) | COc1cccc(C2CC(c3ccc(F)cc3)=NN2c2ccc(S(N)(=O)=O)cc2)c1OC (configuration not stated) | 53.8% | 18.3 mm | 51.5% | – | 59.4% | inactive | 40.1% | 17.6 mm | – | inactive | 13.6 mm | 15.6 mm |
